# Reference: article PMC11927960, “Multiparameter ranking of carbazoles for anti-trypanosome lead discovery” (Frontiers in drug discovery, 2024)
# What was measured:
# [1] = Caco-2 bidirectional permeability assay; assay type: in vitro ADME; conditions: human
# Method: Caco-2 bidirectional permeability assay.
# Caco-2 bidirectional permeability assay was performed at Absorption Systems (Exton, Pennsylvania). Briefly, monolayers of Caco-2 cells (clone C2BBe1) were grown to confluence on collagen-coated, microporous membranes in 12-well plates. Permeability assay buffer (Hanks’ balanced salt solution containing 10 mM HEPES and 15 mM glucose, pH 7.4) in the receiver chamber contained 1% bovine serum albumin. Compounds dissolved in assay buffer (5 μM) were added either on the apical (A) or the basolateral side (B) and incubated at 37 °C with 5% CO2 in a humidified incubator. Samples were collected from donor and receiver chambers at 120 min. Each determination was performed in duplicate. The flux of lucifer yellow dye was measured post-experimentally for each monolayer to ensure that no monolayers were damaged during the flux period with compounds. Drug amounts were determined by LC-MS/MS. Apparent permeability (Papp) and percent recovery were determined as per [Hubatsch et al. (2007)]. The efflux ratio was calculated as Papp (B-to-A)/Papp (A-to-B).
# [2] = test system: protein synthesis in Trypanosoma brucei; test: Protein synthesis (HPG incorporation); assay type: cell-based; conditions: for Protein Synthesis affected: DTC50 as printed in Table S3; for Effect on protein synthesis: DTC90; for Residual Translation: DTC90 of curaxin 15 min, then 60 min HPG, 1 minus inhibition vs DMSO
# Method: FIGURE 3 Effect of curaxins on protein synthesis in Trypanosoma brucei: T. b. brucei (5 × 10^5/mL) was treated with DMSO (D: 0.1%), DTC90 of CBL0174 ([…]), or CBL0187 (600 nM) for 15 min, followed by 60-min incubation with L-Homopropargylglycine (HPG; 4 μM). Incorporated HPG was clicked to azide-Alexa Fluor-488. […] (A) Proteins were transferred to the PVDF membrane and stained for total protein (using LI-COR® Revert™ 700 Total Protein Stain). (B) The membrane was blocked with Intercept® (PBS) blocking buffer and reacted with azide-PEG3-biotin conjugate that was detected with Streptavidin IRDye® 800CW (1: 2500 dilution). (C) Quantitation of HPG signal normalized to total protein loaded per lane. Statistical significance of differences in mean total HPG incorporation (normalized to total protein) was determined with Student’s t-test.
# Mid-logarithmic phase trypanosomes were rinsed and resuspended (5×10^5 cells/mL) in methionine-free RPMI supplemented with 10% fetal bovine serum (FBS). Cells were treated with DTC25 or DTC90 concentrations of CBL0174 or CBL0187 for 15 min, followed by 1-h incubation with 4 μM (final concentration) L-Homopropargylglycine (HPG) (Cayman Chemical). Cells were washed with PBS-G (PBS containing 10 mM glucose), pelleted, and resuspended (~5 × 10^6 cells) in 50 μL of permeabilization buffer (50 mM HEPES pH 7.4, 0.025% NP-40) on ice for 30 min. The pellet was mixed with 50 μL “Click-iT reaction” cocktail (20 mM Tris buffer, pH 7.4, 5 mM CuSO4, 300 mM ascorbic acid, 140 mM NaCl, and 17.5 μM azide-PEG-biotin) at room temperature for 1 h. […] HPG-labeled proteins were detected with Streptavidin IRDye® 800CW (1: 2500) and visualized on a Li-Cor® Odyssey CLx near-infrared fluorescence imaging system ([Sanz-Rodriguez et al., 2022]).
# T. brucei Lister427 = test: Delayed trypanocidal assay (6 h exposure, wash-off); assay type: cell-based, Trypanosoma brucei; conditions: starting cell density 1 × 10^5/mL instead of 5 × 10^5/mL
# T. brucei Lister 427 = test: Effect of 50% serum on curaxin inhibition of trypanosome proliferation; assay type: cell-based, Trypanosoma brucei; conditions: 20, 35 or 50% FBS; Figure S3
# Method: HMI-9 medium ([Hirumi and Hirumi, 1989]) was prepared with different final concentrations of fetal bovine serum (FBS) (20, 35, and 50%). T. brucei Lister 427 was cultured in each medium for at least 7 days. […] EC50 measurements were obtained from three independent experiments in each medium.
# containing 20%, 35% or 50% FBS
# At 0 h, 4x103 trypanosomes/ml in
# media with drug; 37°C, 5% CO2
# Cells lysed and SYBR green
# Hirumi, 1989) was modified to contain 20, 35, or 50% fetal bovine serum (FBS) (total
# concentration). T. b. brucei Lister 427 was first cultured in the medium for 7 days.
# (50 µL). Plates were incubated for 48 h at 37 °C and 5% CO2, and the proliferation of
# trypanosomes was measured using a SYBR green assay (Faria et al., 2015). Each experiment
# was performed thrice, and non-linear regression fits to the data were obtained using GraphPad
# Prism which was used to calculate EC50 values. The possible statistical significance of the
# FBS-medium (control) was determined by Student’s T-test.
# [3] = Caco-2, pH 7.4, Caco-2, direction A-to-B
# [4] = Caco-2, pH 7.4, Caco-2, direction B-to-A
Compound,"Papp at 120 min, 5 μM [1, 3] [×10⁻⁶ cm/s]","recovery at 120 min, 5 μM [1, 3] [%]","Papp at 120 min, 5 μM [1, 4] [×10⁻⁶ cm/s]","recovery at 120 min, 5 μM [1, 4] [%]",Protein Synthesis affected [2],Effect on protein synthesis [2],Residual Translation [2],DTC25 T. brucei Lister427 (value in parenthesis) (T. brucei Lister427) [nM],DTC50 T. brucei Lister427 (value in parenthesis) (T. brucei Lister427) [nM],DTC90 T. brucei Lister427 (value in parenthesis) (T. brucei Lister427) [nM],Effect of serum on anti-trypanosome potency (T. brucei Lister 427)
"CC(=O)c1cc2c3cc(C(C)=O)c(O)cc3n(CCCN(C)C)c2cc1O [CBL0174, 1-[6-acetyl-9-[3-(dimethylamino)propyl]-2,7-dihydroxy-carbazol-3-yl]ethanone]",17.8 ± 0.35,60,21.9 ± 3.39,86,No,did not prevent mRNA translation,0.94,60,122,513,
"CC(=O)c1cc2c3cc(C(C)=O)c(O)cc3n(CCNC(C)C)c2cc1O [CBL0187, 1-[6-acetyl-2,7-dihydroxy-9-[2-(isopropylamino)ethyl]carbazol-3-yl]ethanone]",14 ± 1.91,47,21.7 ± 3.39,64,No,inhibited protein synthesis,0.72,41,98,592,decreases
